# In patent US20220041641A1, “QUATERNARY AMMONIUM SALTS AS INHIBITORS OF TRIMETHYLAMINE PRODUCTION” (Senda Biosciences, Inc., priority 2018, published 2022):
# pIC50: −log10 of the molar value. Where a name gives a salt, the structure may show the parent alone.
# Tests used:
# [1] = target: CutC from Proteus mirabilis (Proteus mirabilis, UniProt B4EYG1); assay: Cell-based assay for TMA production from a native producer (P. mirabilis); conditions: d9-TMA from 1 mM d9-choline, 5 h, 37° C.; value 10 given when no fit or % TMA remaining at 10 μM higher than 15%; read-out: Average IC50 Whole cell P. mirabilis
# CutC from Proteus mirabilis, sequence (B4EYG1 entry or part of it): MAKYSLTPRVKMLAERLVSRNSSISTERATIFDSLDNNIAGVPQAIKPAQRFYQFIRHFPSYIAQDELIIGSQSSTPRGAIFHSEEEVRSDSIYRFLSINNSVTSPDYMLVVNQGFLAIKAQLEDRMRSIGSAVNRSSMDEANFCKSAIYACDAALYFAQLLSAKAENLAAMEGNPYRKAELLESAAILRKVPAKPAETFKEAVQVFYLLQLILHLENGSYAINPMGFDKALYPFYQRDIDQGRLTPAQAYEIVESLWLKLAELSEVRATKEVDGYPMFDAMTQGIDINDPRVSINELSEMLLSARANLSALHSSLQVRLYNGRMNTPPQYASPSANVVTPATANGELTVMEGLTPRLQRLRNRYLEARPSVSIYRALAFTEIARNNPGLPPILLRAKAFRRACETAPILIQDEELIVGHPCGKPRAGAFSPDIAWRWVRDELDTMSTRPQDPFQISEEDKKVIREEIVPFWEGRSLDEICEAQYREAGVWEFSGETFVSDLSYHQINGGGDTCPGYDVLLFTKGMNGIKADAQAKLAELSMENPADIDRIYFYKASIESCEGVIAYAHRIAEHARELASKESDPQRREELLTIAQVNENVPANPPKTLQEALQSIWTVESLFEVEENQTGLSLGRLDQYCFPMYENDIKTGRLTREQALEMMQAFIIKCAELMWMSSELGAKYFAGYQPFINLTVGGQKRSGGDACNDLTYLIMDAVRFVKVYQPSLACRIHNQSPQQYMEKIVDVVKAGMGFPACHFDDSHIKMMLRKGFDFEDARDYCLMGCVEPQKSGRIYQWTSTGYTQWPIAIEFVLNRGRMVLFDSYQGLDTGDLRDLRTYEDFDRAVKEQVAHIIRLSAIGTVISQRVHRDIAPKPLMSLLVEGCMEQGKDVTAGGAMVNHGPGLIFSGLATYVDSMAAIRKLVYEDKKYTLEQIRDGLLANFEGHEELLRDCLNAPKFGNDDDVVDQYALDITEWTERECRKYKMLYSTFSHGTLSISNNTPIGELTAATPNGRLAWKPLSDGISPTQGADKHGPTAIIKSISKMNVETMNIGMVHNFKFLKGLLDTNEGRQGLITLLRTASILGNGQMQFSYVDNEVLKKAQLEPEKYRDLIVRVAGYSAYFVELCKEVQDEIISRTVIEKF
# CutC from Proteus mirabilis, sequence (B4EYG0 entry or part of it, further chain): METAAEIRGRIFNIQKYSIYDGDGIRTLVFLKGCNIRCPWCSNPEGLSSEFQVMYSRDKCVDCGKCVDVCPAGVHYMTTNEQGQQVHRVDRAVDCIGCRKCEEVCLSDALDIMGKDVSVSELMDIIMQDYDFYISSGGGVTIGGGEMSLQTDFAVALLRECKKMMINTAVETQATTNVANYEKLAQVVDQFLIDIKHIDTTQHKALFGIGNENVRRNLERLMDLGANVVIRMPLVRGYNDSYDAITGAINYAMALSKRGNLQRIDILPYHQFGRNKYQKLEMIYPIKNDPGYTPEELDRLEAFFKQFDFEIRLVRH
# Procedure, shortened: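 Overnight anaerobic cultures of P. mirabilis or C. sporogenes, grown in BHI with 1 mM choline, were diluted and given 1 mM (trimethyl-d9)-choline plus compound at 10 μM final. After 5 h at 37° C., d9-TMA was quantified by LCMS.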
# [2] = format: in vitro ADME; conditions: simulated gi fluid, 1 µM, pH 1.6
# Method: This assay was used to assess the stability of a conjugate in a stomach.
# Medium was prepared by dissolving 2 g of sodium chloride in 0.6 L in ultrapure water (MilliQ®, Millipore Sigma, Darmstadt, Germany). The pH was adjusted to 1.6 with 1N hydrochloric acid, and the volume was then adjusted to 1 L with purified water.
# 60 mg FaSSIF powder (Biorelevant™, London, UK) were dissolved in 500 mL buffer (above). Pepsin was added (0.1 mg/mL) (Millipore Sigma, Darmstadt, Germany), and the solution was stirred. The resulting SGF media were used fresh for each experiment.
# (§1) Test compounds were dissolved in DMSO stock to 1 mM. An aliquot of the DMSO stock solution was removed and diluted in the SGF Media in 15 mL falcon tubes to generate a total compound concentration of 1 μM. A 1 mL aliquot was immediately removed and diluted once with 1 volume of acetonitrile for T0 timepoint. The mixture was sealed and mixed at 37° C. in an incubator. Aliquots (1 mL) were removed at regular intervals and immediately quenched by the addition of 1 volume of acetonitrile. The resulting samples were analyzed by LCMS to determine degradation rates in SGF.
# [3] = format: in vitro ADME; conditions: simulated gi fluid, 1 µM, pH 6.7
# Method: This assay was used to assess the stability of a conjugate in a small intestine.
# Phosphate buffer was prepared by dissolving 0.42 g of sodium hydroxide pellets and 3.95 g of monobasic sodium phosphate monohydrate and 6.19 g of sodium chloride in ultrapure water (MilliQ®, Millipore Sigma, Darmstadt, Germany). The pH was adjusted to 6.7 using aq. HCl and aq. NaOH, as necessary, and the solution was diluted with ultrapure water to produce 1 L of the pH 6.7 buffer.
# 112 mg FaSSIF powder (Biorelevant™, London, UK) was dissolved in 50 mL of the pH 6.7 buffer. 2 to 3 mL of the resulting solution were then added to 500 mg pancreatin (Millipore Sigma, Darmstadt, Germany). The resulting mixture was agitated by finger tapping the vessel containing the mixture until milky suspension formed. At this time, the remainder of the 50 mL FaSSiF/pH 6.7 buffer solution was added. The resulting suspension was flipped upside down 10 times to produce SIF, which was used fresh.
# as §1, with “SIF media” for “SGF Media”, “produce” for “generate”, “mixture with a tested” for “total”, “agitated” for “mixed”, “rates.” for “rates in SGF.”
# [4] = format: in vitro ADME; conditions: 1 µM
# Method: This assay was used to assess the stability of a conjugate in a large intestine.
# All experiments were performed in an anaerobic chamber containing 90% nitrogen, 5% hydrogen and 5% carbon dioxide. Colonic material was resuspended as a slurry (15% w/v final concentration) in pre-reduced, anaerobically sterilized dilution blanks (Anaerobe Systems AS-908). The colonic material was then inoculated into 96 well plates containing YCFAC media (Anaerobe Systems AS-680, 6.7 μL slurry into 1 mL total media). A compound was added to each individual well to reach a final analyte concentration of 1 μM, and the material was mixed by pipetting. Each sample was removed after set timepoints (0, 120, 240, 480, 1440, 2880 minutes after initiation of the assay), quenched with acetonitrile containing internal standard, and analyzed by LCMS.
# [5] = system: CutC/D enzyme; assay: Acute mouse model (plasma TMAO on choline diet); format: in vivo, male C57BL/6 mice
# Procedure, shortened: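 Male C57BL/6 mice fed a diet with 1.0% choline (g/g) received compound in water by oral gavage once daily on days 1–3. Plasma taken 20 h after the last dose was protein-precipitated and TMAO quantified by LC-MS/MS against a 0.05-100 μM d9-TMAO calibration curve in control plasma.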
# [6] = in vivo; design: species or system Sprague-Dawley rats; conditions: Sprague-Dawley, rat
# Method: Sprague-Dawley rats (three rats per compound) were treated with a single intravenous (IV) 1 mg/kg dose or orally (PO) a single 10 mg/kg dose. Plasma concentrations of the conjugates were determined by LCMS at 5 minutes, 15 minutes, 30 minutes, 1 hour, 2 hours, 4 hours, 8 and 24 hours post compound administration. […] In addition, the plasma exposure and bioavailability of the active agent of was lower when dosed as a conjugate instead of the active agent alone.
# [7] = Pharmacokinetic study of colon contents and plasma after oral dose of conjugate; format: in vivo, male C57B3L/6 mice; conditions: for Cmax: male
# Method: To confirm that the active agent component of the conjugate is released in the gastrointestinal tract, a pharmacokinetic study was conducted in male C57B3L/6 mice examining conjugate and active agent of concentrations in both the colon contents and plasma after oral dose of conjugate. Conjugate and active agent of were quantified by LCMS at 0 (pre-dose), 0.25, 0.5, 1, 2, 4, 6, 8, 12, and 24 hours post-dose of compound.
Structure (SMILES),pIC50 [1],Assay 1- FaSSGF Stability: % Remaining at 1 hr [2],Assay 2- FaSSIF Stability: % Remaining at 4 hr [3],Assay 3- Colonic Material Stability Assay % Remaining at 24 hr [4],further results
"Br.C#CC[N+](C)(C)CC(=O)O[C@@H]1CO[C@H]2[C@@H]1OC[C@@H]2O [Compound 73, N-(2-(((3R,3aR,6S,6aR)-6-hydroxyhexahydrofuro[3,2-b]furan-3-yl)oxy)-2-oxoethyl)-N,N-dimethylprop-2-yn-1-aminium bromide]",≤ 5.00,107.49%,62.73%,44%,
"C#CC[N+](C)(C)CCO[C@@H]1OC[C@@H](OC(C)=O)[C@H](OC(C)=O)[C@H]1OC(C)=O.[I-] [Compound 8, N,N-dimethyl-N-(2-(((3R,4S,5R)-3,4,5-triacetoxytetrahydro-2H-pyran-2-yl)oxy)ethyl)prop-2-yn-1-aminium iodideiodideiodideiodideiodide]",≤ 5.00,105.93%,113.28%,17%,"% change from vehicle control + choline diet ([5]; Table 4d, 100 mg/kg oral gavage days 1-3): −33%; Mean plasma TMAO ([5]; Table 4d, 100 mg/kg oral gavage days 1-3, plasma 20 h after last gavage): 12.5 µM"
"C[N+](C)(CF)CCO[C@@H]1O[C@H](CO)[C@@H](O)[C@H](O)[C@H]1O.[Cl-] [Compound 98, (fluoromethyl)dimethyl(2-{[(2R,3R,4S,5S,6R)-3,4,5-trihydroxy-6-(hydroxymethyl)oxan-2-yl]oxy}ethyl)azanium Chloride]",,,,,"% change from vehicle control + choline diet ([5]; Table 4f, 3.70 mg/kg oral gavage days 1-3): −8%; Mean plasma TMAO ([5]; Table 4f, 3.70 mg/kg oral gavage days 1-3, plasma 20 h after last gavage): 29.7 µM; % change from vehicle control + choline diet ([5]; Table 4f, 11.0 mg/kg oral gavage days 1-3): 6%; Mean plasma TMAO ([5]; Table 4f, 11.0 mg/kg oral gavage days 1-3, plasma 20 h after last gavage): 34.3 µM; % change from vehicle control + choline diet ([5]; Table 4f, 36.6 mg/kg oral gavage days 1-3): −69%; Mean plasma TMAO ([5]; Table 4f, 36.6 mg/kg oral gavage days 1-3, plasma 20 h after last gavage): 10.1 µM; Cmax ([6]; iv, 1 mg/kg): 23600 nM; Cmax ([6]; po, 10 mg/kg): 306 nM; bioavailability ([6]; po, 10 mg/kg): 0.72%; Cmax ([7]; C57B3L/6, mouse colon contents after oral dose of conjugate, compound measured = conjugate dosed, read-out: Colon Cmax): 21800 nM; Cmax ([7]; C57B3L/6, mouse plasma after oral dose of conjugate, compound measured = conjugate dosed, read-out: Plasma Cmax): 1300 nM"
"CC(=O)OCC1OC(OCC[N+](C)(C)CCl)C(OC(C)=O)C(OC(C)=O)C1OC(C)=O.[I-] (stereo in doubt) [Compound 78, N-(chloromethyl)-N,N-dimethyl-2-(((2S,3S,4R,5S,6S)-3,4,5-triacetoxy-6-(acetoxymethyl)tetrahydro-2H-pyran-2-yl)oxy)ethan-1-aminium Iodide]",,,,,"Cmax ([6]; iv, 1 mg/kg): 8310 nM; % F ([6]; po, 10 mg/kg): 1.91%; Cmax ([6]; po, 10 mg/kg): 130 nM; bioavailability ([6]; po, 10 mg/kg): 0.99%; Cmax ([7]; C57B3L/6, mouse, in vivo, po): 70 nM; Plasma Cmax ([7]; mouse, in vivo, po): Not"
"C#CC[N+](C)(C)CCO[C@@H]1O[C@H](COC(=O)CCC)[C@@H](OC(=O)CCC)[C@H](OC(=O)CCC)[C@H]1OC(=O)CCC.[I-] [Compound 1, N,N-dimethyl-N-(2-(((2R,3R,4S,5R,6R)-3,4,5-tris(butyryloxy)-6-((butyryloxy)methyl)tetrahydro-2H-pyran-2-yl)oxy)ethyl)prop-2-yn-1-aminium iodide]",,84.79%,30.79%,80%,
"C#CC[N+](C)(C)CC(=O)O[C@H]1CO[C@H]2[C@@H]1OC[C@H]2O.O=C([O-])C(F)(F)F [Compound 70, N-(2-(((3S,3aR,6R,6aR)-6-hydroxyhexahydrofuro[3,2-b]furan-3-yl)oxy)-2-oxoethyl)-N,N-dimethylprop-2-yn-1-aminium trifluoroacetate]",≤ 5.00,98.36%,28.06%,47%,
"C#CC[N+](C)(C)CCO[C@H]1CO[C@H]2[C@@H]1OC[C@H]2O [Compound 74, N-(2-(((3S,3aR,6R,6aR)-6-hydroxyhexahydrofuro[3,2-b]furan-3-yl)oxy)ethyl)-N,N-dimethylprop-2-yn-1-aminium trifluoroacetate]",≤ 5.00,107.3%,121.56%,99%,
